Assay results reported in patent publication US20200187502A1, “MICROBIOCIDAL OXADIAZOLE DERIVATIVES” (SYNGENTA PARTICIPATIONS AG, priority 2017, published 2020).

What was measured:
[1] = system: Puccinia recondita f. Sp. Tritici; experiment: Fungicidal activity, wheat leaf disc preventative (brown rust); assay type: in vivo; conditions: foliar, 200 ppm in the applied formulation, wheat leaf segments cv. Kanzler, compared to untreated control, 7 to 9 days after application, read-out: disease control
Outline: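 Preventative leaf-segment test: spray application of diluted formulated compound on wheat cv. Kanzler, spore inoculation after 1 day. Percent control relative to untreated segments rated 7 to 9 days post-application, with incubation at 19° C, 75% relative humidity, 12 h photoperiod.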

[2] = system: Puccinia recondita f. Sp. Tritici; experiment: Fungicidal activity, wheat leaf disc curative (brown rust); assay type: in vivo; conditions: foliar, 200 ppm in the applied formulation, wheat leaf segments cv. Kanzler, curative (applied 1 day after inoculation), compared to untreated control, 6 to 8 days after application, read-out: disease control
Procedure: Leaf disks or leaf segments of various plant species are cut from plants grown in a greenhouse. The cut leaf disks or segments are placed in multiwell plates (24-well format) onto water agar. The leaf disks are sprayed with a test solution before (preventative) or after (curative) inoculation. Compounds to be tested are prepared as DMSO solutions (max. 10 mg/ml) which are diluted to the appropriate concentration with 0.025% Tween20 just before spraying. The inoculated leaf disks or segments are incubated under defined conditions (temperature, relative humidity, light, etc.) according to the respective test system. A single evaluation of disease level is carried out 3 to 14 days after inoculation, depending on the pathosystem. Percent disease control relative to the untreated check leaf disks or segments is then calculated.
Wheat leaf segments cv. Kanzler are placed on agar in multiwell plates (24-well format). The leaf segments are then inoculated with a spore suspension of the fungus. Plates were stored in darkness at 19° C. and 75% relative humidity. The formulated test compound diluted in water was applied 1 day after inoculation. The leaf segments were incubated at 19° C. and 75% relative humidity under a light regime of 12 hours light/12 hours darkness in a climate cabinet and the activity of a compound was assessed as percent disease control compared to untreated when an appropriate level of disease damage appears in untreated check leaf segments (6 to 8 days after application).
The following compounds at 200 ppm in the applied formulation give at least 80% disease control in this test when compared to untreated control leaf disks under the same conditions, which show extensive disease development.

[3] = system: Glomerella lacenarium (Colletotrichum lacenarium); experiment: Fungicidal activity, liquid culture, cucumber preventative (anthracnose); assay type: cell-based; conditions: 20 ppm in the applied formulation, liquid culture in PDB, inhibition of growth measured photometrically 3 to 4 days after application, compared to untreated control, read-out: disease control
Outline: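 PDB broth seeded with cryo-stored conidia, added onto compound (DMSO solution) in 96-well plates; 24° C.; photometric growth read at 3–4 d post-application; % inhibition vs untreated check.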

| Structure (SMILES) | pest or weed control at 200 ppm [1] | pest or weed control at 200 ppm [2] | inhibition of growth at 20 ppm [3] |
| --- | --- | --- | --- |
| CON(C)C(=O)N(Cc1ccc(-c2noc(C(F)(F)F)n2)s1)OC [Compound 1.6, 1,3-dimethoxy-1-methyl-3-[[5-[5-(trifluoromethyl)-1,2,4-oxadiazol-3-yl]-2-thienyl]methyl]urea] | ≥ 80% | ≥ 80% | ≥ 80% |
| CCOC(=O)N(Cc1ccc(-c2noc(C(F)(F)F)n2)s1)OC [Compound 1.28, ethyl N-methoxy-N-[[5-[5-(trifluoromethyl)-1,2,4-oxadiazol-3-yl]-2-thienyl]methyl]carbamate] | ≥ 80% | ≥ 80% | ≥ 80% |
| CNS(=O)(=O)N(Cc1ccc(-c2noc(C(F)(F)F)n2)s1)OC [Compound 1.32, 3-[5-[[methoxy(methylsulfamoyl)amino]methyl]-2-thienyl]-5-(trifluoromethyl)-1,2,4-oxadiazole] | ≥ 80% | ≥ 80% | ≥ 80% |
| CNC(=O)N(OC)C(C)c1ccc(-c2noc(C(F)(F)F)n2)s1 (centres unmarked) [Compound 1.50, 1-methoxy-3-methyl-1-[1-[5-[5-(trifluoromethyl)-1,2,4-oxadiazol-3-yl]-2-thienyl]ethyl]urea] | ≥ 80% | ≥ 80% | ≥ 80% |
| CCONC(=O)N(Cc1ccc(-c2noc(C(F)(F)F)n2)s1)OC [Compound 1.55, 3-ethoxy-1-methoxy-1-[[5-[5-(trifluoromethyl)-1,2,4-oxadiazol-3-yl]-2-thienyl]methyl]urea] | ≥ 80% | ≥ 80% | ≥ 80% |
| CON(Cc1ccc(-c2noc(C(F)(F)F)n2)s1)C(=O)N(CC(F)F)C1CC1 [Compound 1.59, 1-cyclopropyl-1-(2,2-difluoroethyl)-3-methoxy-3-[[5-[5-(trifluoromethyl)-1,2,4-oxadiazol-3-yl]-2-thienyl]methyl]urea] | ≥ 80% | ≥ 80% | ≥ 80% |
| CCCN(CC1CC1)C(=O)N(Cc1ccc(-c2noc(C(F)(F)F)n2)s1)OC [Compound 1.60, 1-(cyclopropylmethyl)-3-methoxy-1-propyl-3-[[5-[5-(trifluoromethyl)-1,2,4-oxadiazol-3-yl]-2-thienyl]methyl]urea] | ≥ 80% | ≥ 80% | ≥ 80% |
| CC(C)C(=O)N(Cc1ccc(-c2noc(C(F)(F)F)n2)s1)C1CC1 [Compound 4.3, N-cyclopropyl-2-methyl-N-[[5-[5-(trifluoromethyl)-1,2,4-oxadiazol-3-yl]-2-thienyl]methyl]propanamide] | ≥ 80% | ≥ 80% | ≥ 80% |
| CCOC(=O)N(Cc1ccc(-c2noc(C(F)(F)F)n2)s1)C1CC1 [Compound 4.4, ethyl N-cyclopropyl-N-[[5-[5-(trifluoromethyl)-1,2,4-oxadiazol-3-yl]-2-thienyl]methyl]carbamate] | ≥ 80% | ≥ 80% | ≥ 80% |
| CCN(Cc1ccc(-c2noc(C(F)(F)F)n2)s1)C(=O)C(C)OC (centres unmarked) [Compound 4.6, N-ethyl-2-methoxy-N-[[5-[5-(trifluoromethyl)-1,2,4-oxadiazol-3-yl]-2-thienyl]methyl]propanamide] | ≥ 80% | ≥ 80% | ≥ 80% |
| CC(C)C(=O)N(Cc1ccc(-c2noc(C(F)(F)F)n2)s1)C(C)C [Compound 4.11, N-isopropyl-2-methyl-N-[[5-[5-(trifluoromethyl)-1,2,4-oxadiazol-3-yl]-2-thienyl]methyl]propanamide] | ≥ 80% | ≥ 80% | ≥ 80% |
| COC(C)C(=O)N(Cc1ccc(-c2noc(C(F)(F)F)n2)s1)C1CC1 (centres unmarked) [Compound 4.14, N-cyclopropyl-2-methoxy-N-[[5-[5-(trifluoromethyl)-1,2,4-oxadiazol-3-yl]-2-thienyl]methyl]propanamide] | ≥ 80% | ≥ 80% | ≥ 80% |
| CCN(Cc1ccc(-c2noc(C(F)(F)F)n2)s1)C(=O)CNC(C)=O [Compound 4.23, 2-acetamido-N-ethyl-N-[[5-[5-(trifluoromethyl)-1,2,4-oxadiazol-3-yl]-2-thienyl]methyl]acetamide] | ≥ 80% | ≥ 80% | ≥ 80% |
| CCN(Cc1ccc(-c2noc(C(F)(F)F)n2)s1)C(=O)CC#N [Compound 4.29, 2-cyano-N-ethyl-N-[[5-[5-(trifluoromethyl)-1,2,4-oxadiazol-3-yl]-2-thienyl]methyl]acetamide] | ≥ 80% | ≥ 80% | ≥ 80% |
| CCCC(=O)N(C)Cc1ccc(-c2noc(C(F)(F)F)n2)s1 [Compound 4.34, N-methyl-N-[[5-[5-(trifluoromethyl)-1,2,4-oxadiazol-3-yl]-2-thienyl]methyl]butanamide] | ≥ 80% | ≥ 80% | ≥ 80% |
| CCC(=O)N(C)Cc1ccc(-c2noc(C(F)(F)F)n2)s1 [Compound 4.36, N-methyl-N-[[5-[5-(trifluoromethyl)-1,2,4-oxadiazol-3-yl]-2-thienyl]methyl]propanamide] | ≥ 80% | ≥ 80% | ≥ 80% |
| CN(Cc1ccc(-c2noc(C(F)(F)F)n2)s1)C(=O)CC#N [Compound 4.39, 2-cyano-N-methyl-N-[[5[5-(trifluoromethyl)-1,2,4-oxadiazol-3-yl]-2-thienyl]methyl]acetamide] | ≥ 80% | ≥ 80% | ≥ 80% |
| CC(=O)N(C)Cc1ccc(-c2noc(C(F)(F)F)n2)s1 [Compound 4.41, N-methyl-N-[[5-[5-(trifluoromethyl)-1,2,4-oxadiazol-3-yl]-2-thienyl]methyl]acetamide] | ≥ 80% | ≥ 80% | ≥ 80% |
| COCC(=O)N(Cc1ccc(-c2noc(C(F)(F)F)n2)s1)C(C)C [Compound 4.42, N-isopropyl-2-methoxy-N-[[5-[5-(trifluoromethyl)-1,2,4-oxadiazol-3-yl]-2-thienyl]methyl]acetamide] | ≥ 80% | ≥ 80% | ≥ 80% |
| CC(=O)NCC(=O)N(Cc1ccc(-c2noc(C(F)(F)F)n2)s1)C(C)C [Compound 4.43, 2-acetamido-N-isopropyl-N-[[5-[5-(trifluoromethyl)-1,2,4-oxadiazol-3-yl]-2-thienyl]methyl]acetamide] | ≥ 80% | ≥ 80% | ≥ 80% |
| CCCC(=O)N(Cc1ccc(-c2noc(C(F)(F)F)n2)s1)C(C)C [Compound 4.44, N-isopropyl-N-[[5-[5-(trifluoromethyl)-1,2,4-oxadiazol-3-yl]-2-thienyl]methyl]butanamide] | ≥ 80% | ≥ 80% | ≥ 80% |
| CCN(Cc1ccc(-c2noc(C(F)(F)F)n2)s1)C(=O)C1CC1(F)F (centres unmarked) [Compound 5.15, N-ethyl-2,2-difluoro-N-[[5-[5-(trifluoromethyl)-1,2,4-oxadiazol-3-yl]-2-thienyl]methyl]cyclopropanecarboxamide] | – | ≥ 80% | ≥ 80% |
| CC(C)N(Cc1ccc(-c2noc(C(F)(F)F)n2)s1)C(=O)C1CCC1 [Compound 5.29, N-isopropyl-N-[[5-[5-(trifluoromethyl)-1,2,4-oxadiazol-3-yl]-2-thienyl]methyl]cyclobutanecarboxamide] | – | ≥ 80% | ≥ 80% |
| CC(C)N(Cc1ccc(-c2noc(C(F)(F)F)n2)s1)C(=O)C1CCCO1 (centres unmarked) [Compound 5.31, N-isopropyl-N-[[5-[5-(trifluoromethyl)-1,2,4-oxadiazol-3-yl]-2-thienyl]methyl]tetrahydrofuran-2-carboxamide] | – | ≥ 80% | ≥ 80% |
| CC(C)N(Cc1ccc(-c2noc(C(F)(F)F)n2)s1)C(=O)C1CC1(F)F (centres unmarked) [Compound 5.33, 2,2-difluoro-N-isopropyl-N-[[5-[5-(trifluoromethyl)-1,2,4-oxadiazol-3-yl]-2-thienyl]methyl]cyclopropanecarboxamide] | – | ≥ 80% | ≥ 80% |
